Experimental data: article PMC5344255, “Design, Synthesis and Biochemical Evaluation of Novel Selective Estrogen Receptor Ligand Conjugates Incorporating an Endoxifen-Combretastatin Hybrid Scaffold” (Biomedicines, 2016)
Values joined by “and” are separate entries in the source; they are usually repeats but may differ in a detail not shown here. Identical values can stand only once. Marks after values point to notes of the source that are not given here.

Tests used:
[1] = system: MCF-7 human breast cancer cells; test: Lactate dehydrogenase (LDH) cytotoxicity assay in MCF-7; assay type: cell-based; settings: % cell lysis at 10 µM
How it was run: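 Cells seeded at 1 × 10^4 per well and grown 24 h, then dosed with compounds over 1 nM–50 μM. Cell lysis quantified as released cytoplasmic LDH using the CytoTox 96 nonradioactive cytotoxicity assay.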

[2] = system: MDA-MB-231 human breast cancer cells; test: MTT assay for antiproliferative effects in MDA-MB-231; assay type: cell-based; settings: MDA-MB-231, MTT assay
[3] = system: Ishikawa cell line of human endometrial adenocarcinoma cells; test: Ishikawa assay, estrogen stimulation of alkaline phosphatase activity; assay type: cell-based
Protocol: The Ishikawa assay is used to measure estrogen stimulation of alkaline phosphatase enzyme activity (AlkP) by the Ishikawa cell line of human endometrial adenocarcinoma cells. The Ishikawa assay provides a measure of the agonist activity of a compound. […] The assay was carried out following the method of Littlefield et al.. The batch of Ishikawa cells were obtained as a gift from Professor R. Hochberg—who developed the alkaline phosphatase assay in Yale University, CT, USA.
The Ishikawa assay is used to measure estrogen stimulation of alkaline phosphatase enzyme activity (AlkP) by the Ishikawa cell line of human endometrial adenocarcinoma cells. […] The conjugate was dosed in duplicate.

[4] = system: K-562; test: NCI 60 cell line screen; assay type: cell-based, human; settings: K-562 (Leukemia)
[5] = system: A549/ATCC; test: NCI 60 cell line screen; assay type: cell-based, human; settings: A549/ATCC (Non-Small Cell Lung Cancer)
[6] = system: HOP-92; test: NCI 60 cell line screen; assay type: cell-based, human; settings: HOP-92 (Non-Small Cell Lung Cancer)
[7] = system: NCI-H460; test: NCI 60 cell line screen; assay type: cell-based, human; settings: NCI-H460 (Non-Small Cell Lung Cancer)
[8] = system: KM12; test: NCI 60 cell line screen; assay type: cell-based, human; settings: KM12 (Colon Cancer)
[9] = system: SF-268; test: NCI 60 cell line screen; assay type: cell-based, human; settings: SF-268 (CNS Cancer)
[10] = system: SF295; test: NCI 60 cell line screen; assay type: cell-based, human; settings: SF295 (CNS Cancer)
[11] = system: SNB-75; test: NCI 60 cell line screen; assay type: cell-based, human; settings: SNB-75 (CNS Cancer)
[12] = system: PC-3; test: NCI 60 cell line screen; assay type: cell-based, human; settings: PC-3 (Prostate cancer)
[13] = system: DU-145; test: NCI 60 cell line screen; assay type: cell-based, human; settings: DU-145 (Prostate cancer)
[14] = system: SK-MEL-28; test: NCI 60 cell line screen; assay type: cell-based, human; settings: SK-MEL-28 (Melanoma); one-dose 10 µM
[15] = system: UACC-257; test: NCI 60 cell line screen; assay type: cell-based, human; settings: UACC-257 (Melanoma); one-dose 10 µM
[16] = system: NCI/ADR-RES; test: NCI 60 cell line screen; assay type: cell-based, human; settings: NCI/ADR-RES (Ovarian Cancer); one-dose 10 µM
[17] = system: A498; test: NCI 60 cell line screen; assay type: cell-based
[18] = system: UO-31; test: NCI 60 cell line screen; assay type: cell-based, human; settings: UO-31 (Renal Cancer); one-dose 10 µM
[19] = system: MCF-7; test: NCI 60 cell line screen; assay type: cell-based; settings: Homo sapiens

CCC(=C(c1ccc(O)cc1)c1ccc(OCCN(C)C(=O)/C(=C/c2ccc(OC)c(O)c2)c2cc(OC)c(OC)c(OC)c2)cc1)c1ccc(O)cc1 (mixture of isomers) [Compound 28, (E)-N-(2-{4-[(E/Z)-1,2-Bis-(4-hydroxyphenyl)but-1-enyl]-phenoxy}ethyl)-3-(3-hydroxy-4-methoxyphenyl)-N-methyl-2-(3,4,5-trimethoxyphenyl)acrylamide]
% Cell Death at 10 μM [1]: 17%
IC50 [2]: 2480 nM
estrogenic activity (alkaline phosphatase stimulation) ([3]; compound dosed individually): does not display estrogenic stimulation in the cell line
estrogen stimulation (alkaline phosphatase) in mixture with estradiol ([3]; dosed with 1 nM estradiol spike): a reduction in estrogenic stimulation at low concentrations and a more pronounced reduction in estrogen stimulation over the range of concentrations when compared with the Tamoxifen mixture
GI50 ([4]; Homo sapiens, K562, five-dose screen): 2570 nM
GI% (10^−5 M) ([4]; one-dose 10 µM): 86.1%
GI% (10^−5 M) ([5]; one-dose 10 µM): 86.97%
GI50 ([5]; Homo sapiens, five-dose screen): 2880 nM
GI% (10^−5 M) ([6]; one-dose 10 µM): 86.19%
GI50 ([6]; Homo sapiens, five-dose screen): 764 nM
GI50 ([7]; Homo sapiens, five-dose screen): 1420 nM
GI% (10^−5 M) ([7]; one-dose 10 µM): 98% and 98.38%
GI50 ([8]; Homo sapiens, five-dose screen): 1260 nM
GI% (10^−5 M) ([8]; one-dose 10 µM): 100 ^d,m %
GI50 ([9]; Homo sapiens, five-dose screen): 1690 nM
GI% (10^−5 M) ([9]; one-dose 10 µM): 84.22%
GI50 ([10]; Homo sapiens, SF-295, five-dose screen): 1740 nM
GI% (10^−5 M) ([10]; one-dose 10 µM): 73.4%
GI50 ([11]; Homo sapiens, five-dose screen): 5960 nM
GI% (10^−5 M) ([11]; one-dose 10 µM): 60.65%
GI50 ([12]; Homo sapiens, five-dose screen): 1730 nM
GI% (10^−5 M) ([12]; one-dose 10 µM): 86.32%
GI% (10^−5 M) ([13]; one-dose 10 µM): 100 ^d,o %
GI50 ([13]; Homo sapiens, five-dose screen): 1660 nM
GI% (10^−5 M) [14]: 1.65%
GI% (10^−5 M) [15]: 2.83%
GI% (10^−5 M) [16]: 6.02%
GI% (10^−5 M) ([17]; A498 (Renal Cancer), one-dose 10 µM): 2.94%
CC50 ([17]; Homo sapiens, A498, five-dose screen, read-out: LC50 (the source's name)): 32600 nM
GI% (10^−5 M) [18]: 2.66%
IC50 ([19]; MCF7, read-out: GI50 (IC50)): 9.5 nM
CC50 ([19]; MCF7, MCF-7, five-dose screen, read-out: LC50 (the source's name)): > 50000 nM
